Test results: the NIST ThermoML archive (doi:10.1021/je400917j)
Numbers after ± are expanded uncertainties.

Assay: xn = mol fraction of the nth substance listed
Details: 101 kPa, Liquid; for mass density: Vibrating tube method

CCCC(C)O (stereo not drawn) [pentan-2-ol] + CC(=O)N(C)C
Details	mass density, 298.15 K [kg/m3]	mass density, 303.15 K [kg/m3]	mass density, 308.15 K [kg/m3]	mass density, 313.15 K [kg/m3]	viscosity, 298.15 K [mPa·s]	viscosity, 303.15 K [mPa·s]	viscosity, 308.15 K [mPa·s]	viscosity, 313.15 K [mPa·s]
x2 = 0	805.4 ± 0.2	800.9 ± 0.2	796.9 ± 0.2	792.6 ± 0.2	3.5 ± 0.1	2.83 ± 0.082	2.35 ± 0.069	1.98 ± 0.058
x2 = 0.0811	813.4 ± 0.2	809 ± 0.2	804.9 ± 0.2	800.3 ± 0.2	2.87 ± 0.083	2.42 ± 0.071	2.08 ± 0.061	1.75 ± 0.052
x2 = 0.16	821.8 ± 0.2	817.3 ± 0.2	813 ± 0.2	808.2 ± 0.2	2.35 ± 0.069	2.01 ± 0.059	1.8 ± 0.053	1.52 ± 0.045
x2 = 0.2399	830.7 ± 0.2	826 ± 0.2	821.6 ± 0.2	816.6 ± 0.2	1.93 ± 0.057	1.69 ± 0.05	1.57 ± 0.047	1.33 ± 0.04
x2 = 0.35	843.5 ± 0.2	838.7 ± 0.2	834.1 ± 0.2	828.9 ± 0.2	1.52 ± 0.045	1.38 ± 0.041	1.29 ± 0.039	1.13 ± 0.034
x2 = 0.4398	854.5 ± 0.2	849.6 ± 0.2	845 ± 0.2	839.6 ± 0.2	1.3 ± 0.039	1.21 ± 0.036	1.14 ± 0.035	1.01 ± 0.031
x2 = 0.5595	870.1 ± 0.2	865 ± 0.2	860.4 ± 0.2	854.9 ± 0.2	1.13 ± 0.034	1.07 ± 0.033	0.99 ± 0.03	0.89 ± 0.027
x2 = 0.6499	882.5 ± 0.2	877.5 ± 0.2	872.8 ± 0.2	867.4 ± 0.2	1.05 ± 0.032	0.99 ± 0.03	0.91 ± 0.028	0.83 ± 0.026
x2 = 0.7398	895.4 ± 0.2	890.4 ± 0.2	885.8 ± 0.2	880.5 ± 0.2	0.99 ± 0.03	0.93 ± 0.029	0.86 ± 0.027	0.793 ± 0.025
x2 = 0.8499	912.1 ± 0.2	907.3 ± 0.2	902.8 ± 0.2	897.8 ± 0.2	0.95 ± 0.029	0.89 ± 0.027	0.82 ± 0.025	0.761 ± 0.024
x2 = 0.9398	926.5 ± 0.2	921.9 ± 0.2	917.5 ± 0.2	913 ± 0.2	0.938 ± 0.029	0.878 ± 0.027	0.804 ± 0.025	0.752 ± 0.024
